Results taken from ChEMBL document CHEMBL4477172, “Bougainvinones A-H, Peltogynoids from the Stem Bark of Purple Bougainvillea spectabilis and Their Cytotoxic Activity” (J Nat Prod, 2016).

How the values were obtained:
Assay type in all cases: functional, cell-based
[1] = test system: KB; assay: Cytotoxicity against human KB cells after 48 hrs by MTT assay
[2] = test system: HeLa S3; assay: Cytotoxicity against human HeLaS3 cells after 48 hrs by MTT assay; settings: HeLa S3, 48 h
[3] = test system: HT-29; assay: Cytotoxicity against human HT-29 cells after 48 hrs by MTT assay; settings: HT-29, 48 h
[4] = test system: HepG2; assay: Cytotoxicity against human HepG2 cells after 48 hrs by MTT assay; settings: HepG2, 48 h
[5] = test system: MCF7; assay: Cytotoxicity against human MCF7 cells after 48 hrs by MTT assay; settings: MCF7, 48 h

| Structure (SMILES) | IC50 [1] | IC50 [2] | IC50 [3] | IC50 [4] | IC50 [5] |
| --- | --- | --- | --- | --- | --- |
| COc1c(C)c(OC)c2c(=O)c3c(oc2c1C)-c1c(O)cccc1CO3 | > 10 µM | > 10 µM | > 10 µM | > 10 µM | > 10 µM |
| COc1c(C)c(O)c(C)c2oc3c(c(=O)c12)OCc1ccccc1-3 | > 10 µM | > 10 µM | > 10 µM | > 10 µM | > 10 µM |
| Cc1c(O)c(C)c2oc3c(c(=O)c2c1O)OCc1ccccc1-3 | > 10 µM | > 10 µM | > 10 µM | > 10 µM | > 10 µM |
| COc1ccc2c(c1)COc1c-2oc2c(C)c(O)c(C)c(OC)c2c1=O | > 10 µM | > 10 µM | > 10 µM | > 10 µM | > 10 µM |
| COc1c(C)c(OC)c2c(=O)c3c(oc2c1C)-c1ccccc1CO3 | > 10 µM | > 10 µM | > 10 µM | > 10 µM | > 10 µM |
| Cc1c(O)c(C)c2oc3c(c(=O)c2c1O)OCc1cccc(O)c1-3 | 9 µM | > 10 µM | > 10 µM | > 10 µM | > 10 µM |
| COc1ccc2c(c1)COc1c-2oc2c(C)c(O)c(C)c(O)c2c1=O | 8.1 µM | 8.4 µM | 8.8 µM | 7.4 µM | 9.7 µM |
| COc1cccc2c1C(=O)c1c(O)c3c(c(O)c1C2=O)C[C@@](O)(C(=O)CO)C[C@@H]3O[C@H]1C[C@H](N)[C@H](O)[C@H](C)O1 [DOXORUBICIN] | 0.09 µM | – | 0.26 µM | 1.54 µM | – |
| COc1c(C)c(O)c2c(=O)c3c(oc2c1C)-c1c(O)cccc1CO3 | 6.6 µM | > 10 µM | > 10 µM | > 10 µM | > 10 µM |
